Assay results reported in patent publication US8598184B2, “Protein kinase inhibitors” (Tiger Pharmatech, priority 2008, dated 2013).
“And” between values parts separate entries of the source, which are not always exact repeats. Equal entries are not always repeated. Where two headings read alike, the source gives them in different places.

Assays:
[1] = In vivo pharmacokinetics study in rats, intravenous and oral administration; design: species or system male Sprague Dawley rats
Protocol: The compounds of the present invention were formulated as a solution in a 30:70 (PEG 400:acidified H2O) vehicle. This solution was administered orally (p.o.) at 10 mg/kg and intravenously (i.v.) at 2.5 mg/kg to two distinct groups (n=3) of male Sprague Dawley rats (body weight of 220-250 g). The animals used in the oral dosing group were fasted for 12 hrs before the drug administration. The blood samples were collected via retro-orbital puncture at 0 hour (pre-dose), 0.083, 0.25, 0.5, 1, 2, 4, 6, 8, and 24 hours post-dose. The blood plasma was isolated and HPLC was performed to determine the concentration of the test compounds in blood plasma. Standard set of pharmacokinetic parameters including Area Under the Curves (AUC's), elimination half-lives and bioavailabilities etc. were calculated using FDA certified pharmacokinetic program WinNonlin Professional v5.2 (Pharsight, USA).
The bioavailability was calculated as F (%)=(Doseiv×AUCoral(0-∞))/(Doseoral×AUCiv(0-∞))100%. The plasma concentration-time curve of example 5 in male rats following intravenous and oral administration was shown in FIG. 1. Selected pharmacokinetics parameters of example 5 in male rats following intravenous and oral administration were listed in Table 2.

[2] = system: U87MG glioblastoma tumor xenograft; conditions: for tumor growth inhibition: Day 12, vs vehicle-treated controls
Protocol: The U87MG glioblastoma cell line (obtained from Institute of Biochemistry and Cell Biology, Shanghai Institutes for Biological Sciences) expresses the c-Met receptor and responds to […] (HGF). […] The study utilized a tumor growth inhibition (TGI) assay to test per os (p.o.) compound monotherapy in groups of eight nude mice. A control group was treated with a 30:70 (PEG 400:acidified H2O) vehicle. All treatments began on Day 1 (D1) in mice bearing established subcutaneous (s.c.) U87MG tumors.
Female athymic nude mice (BALB/cA, Shanghai Laboratories Animal Center, Shanghai, China) were 7-8 weeks old with a body weight range of 19-21 g at the beginning of the study. Food and water were available ad libitum throughout the study. Mice were housed in SPF (Specific Pathogen Free) area of Medicilon/MPI animal facility. Environmental control for the animal room was set to maintain a temperature of 18-25° C., humidity of 30-70%, and a 12-hour light/12-hour dark cycle. Animals had previously been acclimated to study procedures prior to initial dose administration. Animals to be used on test were selected based on overall health and acclimation to caging.
U-87 MG human glioblastoma cells were purchased from Institute of Biochemistry and Cell Biology, Shanghai Institutes for Biological Sciences. The cells were maintained in vitro Eagle's Minimum Essential Medium supplemented with 10% heat inactivated fetal calf serum. Cells were cultured at 37° C. in an atmosphere of 5% CO2 in air and routinely sub-cultured twice weekly by trypsin-EDTA treatment. Cells in an exponential growth phase were harvested and counted for tumor inoculation. Each test mouse was subcutaneously inoculated with 1×10^7 U87-MG tumor cells in 0.1 ml medium at the right flank of the mouse for tumor model development. During the experiment, the implanted tumors were measured by external caliper every other day in a blind fashion. Nine days later, on Day 1 of the study, mice with well-established tumors (about 150 mm^3) were randomly assigned into 4 groups (n=8 mice/group). Tumor volume was calculated using the formula: Tumor Volume=w^2×l/2 where w=width and l=length in mm of the tumor. Tumor weight may be estimated with the assumption that 1 mg is equivalent to 1 mm^3 of tumor volume.
In all groups, the dosing volume of 0.2 mL/20 g mouse was scaled to the body weight of each animal
The MTV (n) is defined as the median tumor volume (MTV) for the number of animals, n, remaining in the study on that day. The Median Tumor Growth Volume=Median Tumor Volume−Median Tumor Volumeinitial.
Tumor growth was plotted as the median tumor volume, versus time, for each group in the study. The differences in the tumor size between the treatment groups and the vehicle group are analyzed for significance using the unpaired two-tailed Student's t-test. P<0.05 is considered to be statistically significant.

[3] = male rats, IV 2.5 mg/kg, individual animals R 1-R 3
[4] = male rats, PO 10 mg/kg, fasted, individual animals R 4-R 6
[5] = male, Sprague Dawley, rat, plasma, iv, 2.5 mg/kg, IV 2.5 mg/kg, individual animals R 1-R 3
[6] = male, Sprague Dawley, rat, plasma, iv, 2.5 mg/kg, IV 2.5 mg/kg, mean (n=3)
[7] = male, Sprague Dawley, rat, plasma, po, 10 mg/kg, PO 10 mg/kg, fasted, individual animals R 4-R 6
[8] = male, Sprague Dawley, rat, plasma, po, 10 mg/kg, PO 10 mg/kg, fasted, mean (n=3)

SMILES: OCCn1cc(-c2ncc3nnn(Cc4ccc5ncccc5c4)c3n2)cn1 [Example 5, 2-(4-(3-(Quinolin-6-ylmethyl)-3H-[1,2,3]triazolo[4,5-d]pyrimidin-5-yl)-1H-pyrazol-1-yl)ethanol]
- Tmax ([1]; Sprague Dawley, rat, plasma, male rats, IV 2.5 mg/kg, individual animals R 1-R 3): 0.08 h
- Tmax ([1]; Sprague Dawley, rat, plasma, male rats, PO 10 mg/kg, fasted, individual animals R 4-R 6): 2 h
- AUC(0-t) [1, 3]: 5472.46 ng·h/mL and 3451.75 ng·h/mL and 7274.77 ng·h/mL
- AUC(0-∞) [1, 3]: 3741.58 ng·h/mL and 7310.08 ng·h/mL
- Cmax [1, 3]: 2417.88 ng/mL and 3019.57 ng/mL
- t1/2 [1, 3]: 2.59 h and 3.23 h
- F % (bioavailability) ([1]; male rats, PO 10 mg/kg vs IV 2.5 mg/kg, individual animals R 4-R 6): 70.36% and 72.63%
- AUC(0-t) [1, 4]: 15454.20 ng·h/mL and 15954.84 ng·h/mL
- AUC(0-∞) [1, 4]: 15509.49 ng·h/mL and 16010.05 ng·h/mL
- Cmax [1, 4]: 1505.63 ng/mL and 2299.65 ng/mL
- t1/2 [1, 4]: 2.82 h and 2.98 h
- AUC(0-inf) [1, 5]: 5480 ng·h/mL
- half-life [1, 5]: 2.62 h
- Cmax ([1]; male, Sprague Dawley, rat, plasma, iv, 2.5 mg/kg, IV 2.5 mg/kg, individual animals R 1-R 3, read-out: Cmax): 2700 ng/mL
- AUC(0-inf) [1, 6]: 5510 ng·h/mL
- half-life [1, 6]: 2.81 h
- AUC(0-t) ([1]; male, Sprague Dawley, rat, plasma, iv, 2.5 mg/kg, IV 2.5 mg/kg, mean (n=3), read-out: AUC(0-t)): 5400 ng·h/mL
- Cmax ([1]; male, Sprague Dawley, rat, plasma, iv, 2.5 mg/kg, IV 2.5 mg/kg, mean (n=3), read-out: Cmax): 2710 ng/mL
- bioavailability ([1]; male, Sprague Dawley, rat, plasma, po, 10 mg/kg, PO 10 mg/kg vs IV 2.5 mg/kg, individual animals R 4-R 6, read-out: F % (bioavailability)): 79.4%
- bioavailability ([1]; male, Sprague Dawley, rat, plasma, po, 10 mg/kg, PO 10 mg/kg vs IV 2.5 mg/kg, mean (n=3), read-out: F % (bioavailability)): 74.1%
- AUC(0-inf) [1, 7]: 17500 ng·h/mL
- half-life [1, 7]: 2.88 h
- AUC(0-t) ([1]; male, Sprague Dawley, rat, plasma, po, 10 mg/kg, PO 10 mg/kg, fasted, individual animals R 4-R 6, read-out: AUC(0-t)): 17400 ng·h/mL
- Cmax ([1]; male, Sprague Dawley, rat, plasma, po, 10 mg/kg, PO 10 mg/kg, fasted, individual animals R 4-R 6, read-out: Cmax): 2540 ng/mL
- AUC(0-inf) [1, 8]: 16300 ng·h/mL
- half-life [1, 8]: 2.89 h
- AUC(0-t) ([1]; male, Sprague Dawley, rat, plasma, po, 10 mg/kg, PO 10 mg/kg, fasted, mean (n=3), read-out: AUC(0-t)): 16300 ng·h/mL
- Cmax ([1]; male, Sprague Dawley, rat, plasma, po, 10 mg/kg, PO 10 mg/kg, fasted, mean (n=3), read-out: Cmax): 2110 ng/mL
- tumor growth inhibition ([2]; 10 mg/kg p.o. once a day (q.d.)): 58%
- tumor growth inhibition ([2]; 30 mg/kg p.o. twice a day (b.i.d.)): 70%
- significance of tumor growth inhibition ([2]; 40 mg/kg (q.d.) and 30 mg/kg (b.i.d.), from Day 4, p<0.05): statistically significant tumor growth inhibition
- tumor growth inhibition ([2]; 40 mg/kg p.o. once a day (q.d.)): 66%
- significance of tumor growth inhibition ([2]; all doses (10, 40 mg/kg q.d., 30 mg/kg b.i.d.), from Day 6, p<0.05): statistically significant tumor growth inhibition
